Test [1] addresses Mu-type opioid receptor (Rattus norvegicus) (UniProt P33535).
Description: Selectivity ratio was determined by taking the ratio of Opioid receptor mu 1 to that of Opioid receptor delta 1
The target of test [2] is T1, Delta-type opioid receptor (Mus musculus, UniProt P32300). Put plainly: In vitro inhibitory activity was determined against Opioid receptor delta 1 in mouse vas deferens.
Test [3] has as its target Mu-type opioid receptor (Rattus norvegicus, UniProt P33535). As to the kind of experiment: Binding affinity was determined towards Opioid receptor mu 1 in rat brain synaptosomes using [3H]DAMGO as radioligand.
Test [4] has as its target T2, Mu-type opioid receptor (Cavia porcellus, UniProt P97266). Put plainly: In vitro inhibitory activity was determined against Opioid receptor mu 1 in guinea pig ileum.
For test [5], the target named is T2, Mu-type opioid receptor. As to the kind of experiment: Inhibitory activity against Opioid receptor mu 1 of (endomorphin 2) in guinea pig ileum was determined.
Test [6] addresses T1, Delta-type opioid receptor. Put plainly: Inhibitory activity against delta receptor of (endomorphin 2) in mouse vas deferens was determined.
The target in test [7] is T1, Delta-type opioid receptor. As to the kind of experiment: Inhibitory activity against Opioid receptor delta 1 of (endomorphin 2) in mouse vas deferens was determined.

Structures are written as SMILES. Where only a bound is given, the exact number is not on record here.

T2 sequence (P97266 whole entry): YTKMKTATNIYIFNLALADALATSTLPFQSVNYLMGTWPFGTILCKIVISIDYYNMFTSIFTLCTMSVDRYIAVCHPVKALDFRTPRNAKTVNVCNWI
Mu-type opioid receptor (Rattus norvegicus, UniProt P33535), sequence (P33535 whole entry): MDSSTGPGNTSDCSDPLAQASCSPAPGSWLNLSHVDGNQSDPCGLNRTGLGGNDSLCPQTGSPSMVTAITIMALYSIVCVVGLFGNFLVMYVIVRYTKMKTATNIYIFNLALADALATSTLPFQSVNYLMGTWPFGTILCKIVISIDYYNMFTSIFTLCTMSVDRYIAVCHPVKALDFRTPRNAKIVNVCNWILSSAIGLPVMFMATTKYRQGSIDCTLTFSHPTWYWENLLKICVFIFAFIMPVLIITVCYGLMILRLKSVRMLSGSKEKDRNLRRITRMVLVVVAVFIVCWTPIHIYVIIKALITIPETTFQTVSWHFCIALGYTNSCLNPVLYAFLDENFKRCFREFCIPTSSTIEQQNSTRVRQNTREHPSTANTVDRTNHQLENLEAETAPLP
Mu-type opioid receptor (Rattus norvegicus), sequence (P33535 whole entry): as above
T1 sequence (P32300 whole entry): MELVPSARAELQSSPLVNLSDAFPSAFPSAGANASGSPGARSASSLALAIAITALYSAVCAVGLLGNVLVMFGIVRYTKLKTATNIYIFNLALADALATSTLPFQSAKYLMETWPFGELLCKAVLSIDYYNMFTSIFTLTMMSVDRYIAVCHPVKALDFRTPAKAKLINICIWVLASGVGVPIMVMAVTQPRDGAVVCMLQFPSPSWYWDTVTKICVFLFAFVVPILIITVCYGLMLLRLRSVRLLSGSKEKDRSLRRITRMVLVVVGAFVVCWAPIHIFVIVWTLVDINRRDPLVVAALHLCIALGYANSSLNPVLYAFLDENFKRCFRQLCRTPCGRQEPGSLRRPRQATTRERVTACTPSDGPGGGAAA

In general, IC50 refers to the concentration at which inhibition is half-maximal. High values mean weaker potency, low ones greater potency. What is called Ki is a dissociation constant, usually derived from enzyme kinetics or from competition with a known ligand. Low readings indicate a stronger hold on the target, high ones a looser hold on the target. The compound `Cc1cc(O)cc(C)c1C[C@H](N)C(=O)NCC(=O)NCC(=O)N[C@@H](Cc1ccccc1)C(=O)N[C@@H](CC(C)C)C(=O)O` returned an SR in test [1] of 0.22. Also, the IC50 in test [2] amounted to 0.17 nM; in test [4] it was 0.55 nM. The same compound displayed a Ki in test [3] of 0.0068 nM.
In test [1], `Cc1cccc(C)c1C[C@H](NC(=O)CNC(=O)CNC(=O)[C@@H](N)Cc1ccc(O)cc1)C(=O)N[C@@H](CC(C)C)C(=O)O` yielded an SR of 0.28. The IC50 in test [2] and in test [4] was more than 10 nM throughout.
The compound `Cc1cccc(C)c1C[C@H](NC(=O)CNC(=O)CNC(=O)[C@@H](N)Cc1c(C)cc(O)cc1C)C(=O)N[C@@H](CC(C)C)C(=O)O` yielded an SR in test [1] of 0.14. The Kb in test [5] was 126 nM; in test [6] it was 2570 nM. The compound further displayed an inhibitory constant (Ki) in test [3] of 5.61 nM. Besides, the concentration for half-maximal inhibition (IC50) in test [4] and in test [7] was more than 10 nM each time.
`Cc1cccc(C)c1C[C@@H](NC(=O)CNC(=O)CNC(=O)[C@@H](N)Cc1ccc(O)cc1)C(=O)N[C@@H](CC(C)C)C(=O)O` displayed an SR in test [1] of 0.07. For the same compound, the figures for the IC50 in test [2] and in test [4] were 624 nM and 808 nM, respectively. In test [3], this compound came in with a Ki of 1.25 nM.
Consider `Cc1cc(O)cc(C)c1C[C@H](N)C(=O)NCC(=O)NCC(=O)N[C@H](Cc1c(C)cccc1C)C(=O)N[C@@H](CC(C)C)C(=O)O`, for which the SR in test [1] came out at 0.19. In addition, the values for the IC50 in test [2] and in test [4] were 1.45 nM and 2 nM, respectively. The compound further had a Ki in test [3] of 0.03 nM.

The record behind these values is ChEMBL document CHEMBL1134162 (Bioorg Med Chem Lett, 2001).
